Test results as given in ChEMBL document CHEMBL5241111, “Non-steroidal anti-inflammatory drugs: recent advances in the use of synthetic COX-2 inhibitors” (RSC Med Chem, 2022).
pIC50: −log10 of the molar value. In brackets after ≈: the same amount, converted by molar mass. One block for each compound: values may come before it.

Experiments:
Homo sapiens [1] = organism: Homo sapiens; assay: Inhibition of ROS production in human blood; assay type: functional
Homo sapiens [2] = organism: Homo sapiens; assay: Inhibition of ROS production in human blood at 25 ug/ml relative to control; assay type: functional
MCF7 = assay: cells; conditions: Homo sapiens, MCF7, 48 h
[3] = target: T1, Prostaglandin G/H synthase 2 (Homo sapiens, UniProt P35354); assay: Inhibition of human recombinant COX-2 by enzyme immunoassay
T1 sequence (P35354 whole entry): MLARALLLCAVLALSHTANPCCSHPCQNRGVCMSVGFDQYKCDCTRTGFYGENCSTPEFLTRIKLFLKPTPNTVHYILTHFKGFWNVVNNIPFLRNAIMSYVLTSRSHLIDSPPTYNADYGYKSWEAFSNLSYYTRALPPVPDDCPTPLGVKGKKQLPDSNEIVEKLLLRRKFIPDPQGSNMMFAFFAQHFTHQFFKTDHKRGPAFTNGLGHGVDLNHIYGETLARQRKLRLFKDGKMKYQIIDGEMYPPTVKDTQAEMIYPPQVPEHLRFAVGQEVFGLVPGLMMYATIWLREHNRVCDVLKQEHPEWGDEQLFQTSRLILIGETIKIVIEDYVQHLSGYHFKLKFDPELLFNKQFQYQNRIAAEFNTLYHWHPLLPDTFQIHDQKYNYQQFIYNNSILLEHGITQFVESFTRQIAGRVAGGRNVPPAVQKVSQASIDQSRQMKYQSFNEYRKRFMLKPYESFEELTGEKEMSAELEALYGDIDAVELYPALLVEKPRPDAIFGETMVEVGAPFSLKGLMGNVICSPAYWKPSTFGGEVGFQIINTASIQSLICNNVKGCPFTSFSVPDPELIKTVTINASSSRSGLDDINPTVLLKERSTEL

[4] = target: T1, Prostaglandin G/H synthase 2; assay: Inhibition of COX-2 (unknown origin) by colorimetric assay
[5] = target: T2, Prostaglandin G/H synthase 2 (Homo sapiens) (UniProt P35354); assay: Potency index, ratio of celecoxib IC50 to test compound IC50 for inhibition of COX-2 (unknown origin) by colorimetric assay
T2 sequence (whole entry): T1 sequence (P35354 whole entry)

Homo sapiens [6] = organism: Homo sapiens; assay: Potency index, ratio of ibuprofen IC50 to test compound IC50 for inhibition of ROS production in human blood; assay type: functional
Albumin = Albumin (Bos taurus, UniProt P02769); assay: Inhibition of bovine serum albumin denaturation incubated for 15 mins
Rattus norvegicus [7] = assay: Antiinflammatory activity against rat model of carrageenan induced paw edema assessed as inhibition of edema at 50 mg/kg, po pretreated for 1 hr followed by carrageenan addition and measured after 1 to 6 hrs relative to control; assay type: functional; conditions: time 2-7 hrs
Rattus norvegicus [8] = assay: Antiinflammatory activity against rat model of carrageenan induced paw edema assessed as reduction in PGE2 level in plasma at 50 mg/kg, po pretreated for 1 hr followed by carrageenan addition and measured after 6 hrs by ELISA relative to control; assay type: functional; conditions: time 7 hrs
Rattus norvegicus [9] = assay: Antiinflammatory activity against rat model of carrageenan induced paw edema assessed as reduction in TNFalpha level in plasma at 50 mg/kg, po pretreated for 1 hr followed by carrageenan addition and measured after 6 hrs by ELISA relative to control; assay type: functional; conditions: time 7 hrs
Rattus norvegicus [10] = assay: Antiinflammatory activity against rat model of carrageenan induced paw edema assessed as reduction in IL-6 level in plasma at 50 mg/kg, po pretreated for 1 hr followed by carrageenan addition and measured after 6 hrs by ELISA relative to control; assay type: functional; conditions: time 7 hrs
Rattus norvegicus [11] = assay: Antiinflammatory activity against rat model of carrageenan induced paw edema assessed as inhibition of edema measured after 1 to 6 hrs relative to control; assay type: functional; conditions: time 1-6 hrs
HCT-116 = assay: cells; conditions: Homo sapiens, HCT-116, 48 h
A549 = assay: cells; conditions: Homo sapiens, A549, 48 h

Albumin, sequence (P02769 whole entry): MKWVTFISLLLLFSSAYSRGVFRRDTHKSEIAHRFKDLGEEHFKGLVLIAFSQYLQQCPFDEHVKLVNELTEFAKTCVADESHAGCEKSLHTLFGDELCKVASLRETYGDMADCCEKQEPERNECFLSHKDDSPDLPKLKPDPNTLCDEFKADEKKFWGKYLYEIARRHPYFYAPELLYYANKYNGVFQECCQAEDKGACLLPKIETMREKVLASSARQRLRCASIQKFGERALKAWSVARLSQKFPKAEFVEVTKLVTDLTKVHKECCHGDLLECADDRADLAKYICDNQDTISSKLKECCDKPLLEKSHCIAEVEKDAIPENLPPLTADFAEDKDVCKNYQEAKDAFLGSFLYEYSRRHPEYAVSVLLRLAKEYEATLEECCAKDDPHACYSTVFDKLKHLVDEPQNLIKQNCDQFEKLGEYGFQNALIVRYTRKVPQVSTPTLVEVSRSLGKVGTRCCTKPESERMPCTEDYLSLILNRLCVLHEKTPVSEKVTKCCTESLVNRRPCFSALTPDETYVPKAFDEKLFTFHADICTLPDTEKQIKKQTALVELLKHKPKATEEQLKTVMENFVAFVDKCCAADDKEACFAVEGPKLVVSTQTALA

IC50 (Homo sapiens [1]): 3.7 µg/mL (≈ 13 µM)
Compound: CCCC(=O)Nc1ccc(OC(=O)c2ccncc2)cc1
inhibition in vivo at 25 µg/mL (Homo sapiens [2]): 85.4%

pIC50 (MCF7): 5.36
Compound: CCOP(=O)(OCC)C(NC(=O)c1cc(-c2cccc3ccccc23)n(-c2ccc(F)cc2)n1)c1ccccc1 (stereo not drawn)

pIC50 [3]: 4.30
Compound: COc1cc(/C=c2\sc3nc(C45CC6CC(CC(C6)C4)C5)nn3c2=O)ccc1O

pIC50 [4]: 6.49 | Ratio IC50 [5]: 12
Compound: CCCCNc1cc(C(=O)n2nc(C)cc2-c2ccccc2)cc(S(N)(=O)=O)c1Oc1ccccc1

IC50 (Homo sapiens [1]): 1.42 µg/mL (≈ 6.63 µM)
Compound: Nc1cccc(OC(=O)c2ccncc2)c1
inhibition in vivo at 25 µg/mL (Homo sapiens [2]): 95.9% | Ratio IC50 (Homo sapiens [6]): 8

pIC50 (Albumin): 4.36
Compound: COc1ccc(C2=NN(C(N)=O)C(c3cn(-c4ccccc4)nc3-c3ccccc3)C2)cc1 (stereo not drawn)

IC50 (Homo sapiens [1]): 11.2 µg/mL (≈ 54.3 µM)
Compound: CC(C)Cc1ccc(C(C)C(=O)O)cc1 (stereo not drawn) [IBUPROFEN]

Compound: COc1cc(C2CC(c3cccc(-n4cnnn4)c3)=NN2C(C)=O)cc(OC)c1OC (stereo not drawn)
inhibition in vivo at 50 mg/kg (Rattus norvegicus [7]): 29.2% | inhibition in vivo at 50 mg/kg (Rattus norvegicus [8]): 81% | inhibition in vivo at 50 mg/kg (Rattus norvegicus [9]): 55.4% | inhibition in vivo at 50 mg/kg (Rattus norvegicus [10]): 61.6%

Compound: CS(=O)(=O)c1ccc(-c2cc(-c3ccc(F)cc3)n(-c3ccc(S(N)(=O)=O)cc3)n2)cc1
inhibition (INH) (Rattus norvegicus [11]): 42.1%

pIC50 [3]: 4.30
Compound: O=c1/c(=C/c2cccc(O)c2)sc2nc(C34CC5CC(CC(C5)C3)C4)nn12

pIC50 (HCT-116): 5.19 | pIC50 (A549): 5.19
Compound: CCOc1ccc2nc(NC(=O)CSc3nnc(Cc4c[nH]c5ccccc45)o3)sc2c1

Compound: COc1cc(-c2cc(-c3cccc(-n4cnnn4)c3)no2)cc(OC)c1OC
inhibition in vivo at 50 mg/kg (Rattus norvegicus [7]): 29.2% | inhibition in vivo at 50 mg/kg (Rattus norvegicus [8]): 81%

pIC50 [4]: 6.77 | Ratio IC50 [5]: 12
Compound: CCCCNc1cc(-c2n[nH]c(=S)n2-c2ccc(Br)cc2)cc(S(N)(=O)=O)c1Oc1ccccc1
